Entries after “also recorded” stand apart in the source; their conditions may differ.
Experiments:
[1] = test system: Jeko-1 cells; assay: Jeko-1 MCL tumor xenograft model, combination with Wee1 inhibitor; type: in vivo; settings: Compound 1 7.5 mg/kg, AZD-1775 15 mg/kg, or both
Method: A Jeko-1 mantle cell lymphoma (MCL) tumor xenograft model was used to study the combined effects of Chk1 inhibition with Compound 1 and a Wee1 inhibitor. Jeko-1 cells were inoculated subcutaneously into the flanks of CB17.SCID mice. Once tumors reached a volume of about 200 mm^3, mice were randomized into study groups (n=10 per group). […] A negative control group was included wherein the mice were treated with vehicle only.

[2] = target: T1, Chk1 (Homo sapiens, UniProt O14757); assay: Chk1 enzymatic assay; type: biochemical; settings: 10 μM [γ-33P]-ATP, 20 μM peptide substrate (SEQ ID NO:1); read-out: IC50, enzymatic potency against Chk1
T1 sequence (O14757 1-476): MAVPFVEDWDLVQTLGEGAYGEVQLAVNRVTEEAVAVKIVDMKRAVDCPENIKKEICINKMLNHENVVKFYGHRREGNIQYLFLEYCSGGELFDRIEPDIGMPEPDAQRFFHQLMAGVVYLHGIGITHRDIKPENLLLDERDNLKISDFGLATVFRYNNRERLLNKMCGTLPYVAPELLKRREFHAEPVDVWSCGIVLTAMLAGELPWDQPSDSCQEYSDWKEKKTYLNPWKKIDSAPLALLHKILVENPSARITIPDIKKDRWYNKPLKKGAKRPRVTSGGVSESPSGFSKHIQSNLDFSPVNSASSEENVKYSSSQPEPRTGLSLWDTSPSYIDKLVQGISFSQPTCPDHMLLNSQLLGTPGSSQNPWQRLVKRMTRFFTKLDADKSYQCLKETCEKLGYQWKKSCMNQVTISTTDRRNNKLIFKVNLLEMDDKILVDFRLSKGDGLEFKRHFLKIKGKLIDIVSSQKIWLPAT

[3] = target: T1, Chk1; assay: Cellular Chk1 assay, serine 296 phospho-epitope immunoblot in HT-29 cells; type: cell-based; settings: HT-29 colon carcinoma cells, 18-hour assay, anti-Chk1 serine 296 phospho-epitope antibody
Method: Cellular Chk1 was assayed using HT-29 colon carcinoma cells in an 18-hour assay by immunoblotting with a rabbit anti-Chk1 serine 296 phosphor-epitope antibody (obtained from Cell Signaling Technology Inc.).

[4] = target: Chk2 (Homo sapiens, UniProt O96017); assay: Kinase panel selectivity, IC50 relative to Chk1; type: biochemical
Chain of Chk2 (O96017 whole entry, species assumed): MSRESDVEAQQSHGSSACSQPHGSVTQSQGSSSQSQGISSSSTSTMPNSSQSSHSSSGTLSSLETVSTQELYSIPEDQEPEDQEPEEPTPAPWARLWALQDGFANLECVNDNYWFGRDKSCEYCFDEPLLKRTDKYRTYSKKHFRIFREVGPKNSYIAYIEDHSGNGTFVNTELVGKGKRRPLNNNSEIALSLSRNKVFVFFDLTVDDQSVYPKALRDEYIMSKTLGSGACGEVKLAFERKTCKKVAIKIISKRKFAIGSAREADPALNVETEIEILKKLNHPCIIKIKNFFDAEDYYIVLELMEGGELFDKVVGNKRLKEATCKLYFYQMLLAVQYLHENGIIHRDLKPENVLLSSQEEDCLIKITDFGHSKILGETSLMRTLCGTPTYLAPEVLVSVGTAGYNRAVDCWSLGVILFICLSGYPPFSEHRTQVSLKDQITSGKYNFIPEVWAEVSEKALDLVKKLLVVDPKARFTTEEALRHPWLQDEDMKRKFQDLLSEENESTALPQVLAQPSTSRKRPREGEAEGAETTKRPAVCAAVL
Method: Compound 1 was screened against a panel of 120 kinases, including those represented in FIG. 3A, using a 1 μM ATP concentration. The IC50 values, measured at the ATP Km for each kinase, are represented relative to Chk1 in FIG. 3B. Cellular IC50 values were derived from signal transduction assays in relevant cell lines using phosphor-epitope-specific antibodies.

[5] = test system: solid and hematological tumor-derived cell lines; assay: Large cell line panel proliferation screens (CellTiter-Glo); type: cell-based; settings: in vitro; lower end printed in nM, upper end in μM; read-out: IC50 values, single agent, large cell line panels
Method: A panel of 232 carcinoma derived cell lines was screened in a high-throughput proliferation assay using dilutions of Compound 1 or cisplatin. Cell lines were treated with serial half-log dilutions of Compound 1 or cisplatin using a starting concentration of 30 μM to achieve 9 dose levels and assayed 72 hours later for proliferation using a CellTiter-Glo® Assay (Promega). IC50 (EC50) values were calculated by fitting the dose-response data using a nonlinear regression model.
A panel of about 70 hematopoietic cell lines was screened for sensitivity to Compound 1 in a 72-hour proliferation assay (CrownBio Omnipanel). Cell lines that were screened included those representing anaplastic large cell lymphoma (ALCL), acute myeloid leukemia (AML), B-cell acute lymphoblastic leukemia (B-ALL), Burkitt lymphoma, chronic lymphocytic leukemia (CLL), chronic myelogenous leukemia (CML), mantle cell lymphoma (MCL), multiple myeloma (MM), acute promyelocytic leukemia (PML), and T-cell acute lymphoblastic leukemia (T-ALL).

[6] = test system: SK-MES-1 tumor cells; assay: SK-MES-1 NSCLC tumor xenograft model; type: in vivo; settings: treated mice
Method: (§1) In order to assess the in vivo efficacy of Compound 1, two different NSCLC xenograft models were used. SK-MES-1 or NCI-H727 tumor cells were inoculated subcutaneously in the flanks of athymic nude mice. Once tumors reached a volume of about 200 mm^3, mice were randomized into study groups (n=10 per group). Mice were treated by oral gavage with Compound 1 at a dose of 12.5, 25, or 50 mg/kg once per day. A negative control group was also included, wherein the animals were administered vehicle only.

[7] = test system: NCI-H727 tumor cells; assay: NCI-H727 NSCLC tumor xenograft model, single agent; type: in vivo; settings: treated mice
Method: as §1

[8] = test system: Jeko-1 cells; assay: Jeko-1 MCL xenograft model, single agent; settings: mouse, in vivo
Method: (§2) The effects of Compound 1 were assessed in two different mantle cell lymphoma (MCL) xenograft models. Jeko-1 and or Maver-1 cells were inoculated subcutaneously in the flanks of CB17.SCID (for Jeko-1 cells) or athymic nude (for Maver-1 cells) mice. Once the tumors reached a volume of about 200 mm^3, the mice were randomized into study groups (n=10 per group). Mice were treated with Compound 1 by oral gavage, or with only vehicle as a negative control. In one treatment group, Compound 1 was administered once per day for 21 days. In the other treatment group, Compound 1 was administered twice per day for three cycles, wherein each cycle constituted treatment for three consecutive days, followed by no treatment for four consecutive days.

[9] = test system: Maver-1 cells; assay: Maver-1 MCL xenograft model, single agent; settings: mouse, in vivo
Method: as §2

[10] = test system: MV-411 cells; assay: MV-411 AML tumor xenograft model; type: in vivo; settings: single agent
Source text: An MV-411 tumor xenograft model was used to test the ability of Compound 1 to inhibit AML tumor growth in vivo. MV-411 cells were mixed with Matrigel in a 1:1 ratio and injected subcutaneously into the right flanks of female NOD.SCID mice. Once tumors reached a volume of about 100 to 200 mm^3, mice were randomized into study groups (n=10 per group) and dosed with Compound 1 by oral gavage.

[11] = GLP cardiovascular safety study; type: in vivo; settings: QTc interval, left ventricular pressure, contractility end points
Source text: 7-day repeat dose tolerability studies have been completed in mice, rats, and cynomolgus monkeys, and there have been no findings in a cynomolgus monkey GLP cardiovascular safety study (including corrected QT (QTc) interval, left ventricular pressure (LVP), and contractility end points). Compound 1 is active as a single agent, but is also active in combination with chemotherapeutic agents and Wee1 inhibitors.

[12] = Efflux ratio; type: in vitro ADME
[13] = Metabolic stability; type: in vitro ADME
[14] = test system: CYP; assay: CYP inhibition; type: in vitro ADME
[15] = target: hERG (Homo sapiens, UniProt Q12809); assay: hERG inhibition
Chain of hERG (Q12809 whole entry): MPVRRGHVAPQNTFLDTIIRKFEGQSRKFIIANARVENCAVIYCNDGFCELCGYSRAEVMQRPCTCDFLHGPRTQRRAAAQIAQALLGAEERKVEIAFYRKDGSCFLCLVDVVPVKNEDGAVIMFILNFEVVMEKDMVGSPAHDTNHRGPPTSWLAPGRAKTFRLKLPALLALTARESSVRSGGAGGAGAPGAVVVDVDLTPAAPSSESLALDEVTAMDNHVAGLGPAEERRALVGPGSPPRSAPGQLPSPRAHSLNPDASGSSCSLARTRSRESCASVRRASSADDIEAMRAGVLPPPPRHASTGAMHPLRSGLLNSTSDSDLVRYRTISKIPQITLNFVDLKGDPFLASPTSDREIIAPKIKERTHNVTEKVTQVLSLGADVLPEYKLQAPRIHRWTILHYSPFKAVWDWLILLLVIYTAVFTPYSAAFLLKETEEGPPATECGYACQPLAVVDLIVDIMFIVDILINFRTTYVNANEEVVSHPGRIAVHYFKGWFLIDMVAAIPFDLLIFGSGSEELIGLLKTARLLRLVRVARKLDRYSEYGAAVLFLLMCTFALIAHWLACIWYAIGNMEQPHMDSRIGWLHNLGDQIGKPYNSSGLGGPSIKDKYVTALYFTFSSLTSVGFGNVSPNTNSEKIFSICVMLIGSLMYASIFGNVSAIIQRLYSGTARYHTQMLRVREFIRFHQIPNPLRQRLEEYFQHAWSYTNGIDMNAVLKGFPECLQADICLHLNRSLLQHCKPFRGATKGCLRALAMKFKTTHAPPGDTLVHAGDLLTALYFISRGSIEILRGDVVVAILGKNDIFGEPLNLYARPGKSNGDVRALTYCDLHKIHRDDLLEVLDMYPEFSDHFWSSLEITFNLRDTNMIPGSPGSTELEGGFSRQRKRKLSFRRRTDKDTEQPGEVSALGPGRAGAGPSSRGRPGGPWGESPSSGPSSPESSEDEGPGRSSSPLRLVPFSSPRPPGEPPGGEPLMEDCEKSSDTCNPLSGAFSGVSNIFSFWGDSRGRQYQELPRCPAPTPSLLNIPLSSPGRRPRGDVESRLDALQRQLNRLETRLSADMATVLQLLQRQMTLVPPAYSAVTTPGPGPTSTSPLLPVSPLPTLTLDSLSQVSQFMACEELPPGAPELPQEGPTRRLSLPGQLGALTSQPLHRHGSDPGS

| SMILES | tumor growth ([1]; oral gavage once per day, three cycles of 3 days on/4 days off) | IC50 [2] [nM] | IC50 [3] [nM] | selectivity for Chk1 over Chk2 [4] | IC50 [5] [nM] | effect on body weight [6] | effect on body weight [7] | tolerability (body weight) [8] | tolerability (body weight) [9] | tolerability (body weight) [1] | tolerability (body weight) [10] | cardiovascular safety findings [11] | efflux ratio [12] | metabolic stability [13] | CYP inhibition [14] | hERG inhibition index [15] |
| --- | --- | --- | --- | --- | --- | --- | --- | --- | --- | --- | --- | --- | --- | --- | --- | --- |
| C=CCn1c(=O)c2cnc(Nc3ccc(N4CCN(C)CC4)cc3)nc2n1-c1cccc(C(C)(C)O)n1 [AZD-1775, 2-allyl-1-(6-(2-hydroxypropan-2-yl)pyridin-2-yl)-6-((4-(4-methylpiperazin-1-yl)phenyl)amino)-1H-pyrazolo[3,4-d]pyrimidin-3(2H)-one, reference compound] | inhibited by both agents alone | – | – | – | – | – | – | – | – | – | – | – | – | – | – | – |
| COc1cc(C2(F)CCN(C)CC2)ccc1-c1cc(Nc2cnc(C#N)cn2)n[nH]1 [Compound 1, 5-((5-(4-(4-fluoro-1-methylpiperidin-4-yl)-2-methoxyphenyl)-1H-pyrazol-3-yl)amino)pyrazine-2-carbonitrile] | – | 0.124 | 0.511 | more than 1,000 × | ≥ 30 | minimal effects on body weight | minimal effects on body weight | well-tolerated | well-tolerated | well-tolerated | well-tolerated | low risk of cardiotoxicity; also recorded: no findings | low | good | no CYP inhibition liabilities | excellent |

Source: patent publication US20200108074A1, “COMBINATIONS OF CHK1- AND WEE1- INHIBITORS” (Seattle Genetics, Inc., priority 2017, published 2020)
